Results on four compounds are retold here after US7863262B2, “Nitroxyl progenitors in the treatment of heart failure” (Johns Hopkins University, priority 2002, dated 2011).

The subject of data set [1] is normal conscious dogs under beta-antagonist therapy with propranolol. Format: in vivo. Particulars: propranolol 2 milligrams/kg in bolus; normal subject.
The next data set has as its system CGRP receptors. The data set is described as follows: CGRP receptor antagonism with CGRP8-37 in conscious dogs experiencing heart failure. The data set is classed as in vivo, mongrel dogs. Particulars: FIG. 6. The method, then:
The diagnostic tests included Ees, DEDV, PRSW, tau, Pes, end diastolic pressure (Ped), end diastolic volume (Ved), and Ea.
To test the relation between the inotropic action of HNO/NO^− and calcitonin gene-related peptide (CGRP) signaling, CGRP receptors in mongrel dogs were antagonized using the selective antagonist CGRP8-37 (400 μg in 30 milliliters (ml) of saline bolus, then 2.6 μg/kg/min for 15 min). Plasma CGRP levels measurements were performed by sampling the blood of the dogs. Blood samples (2.5 ml) were withdrawn from arterial, venous, and coronary sinus catheters. After sampling, catheters were flushed with heparanized saline. Samples were centrifuged at 1600 times gravity (g) for 20 minutes at 4° Celsius (C). Plasma was then separated and stored at −20° C. until analysis. Plasma (0.5 ml) was used to extract CGRP by addition of 0.8 ml of ethanol. The mixture was centrifuged at 1600 g for 20 minutes. After removing the supernatant, the extracted samples were air dried at room temperature overnight and then stored at 4° C. Immediately prior to assay, dried samples were reconstituted with assay buffer following manufacturer's instructions (Peninsula Labs) and assayed for CGRP by radioimmunoassay (RIA). CGRP antiserum, code RAS 6012, was used. The dynamic assay range was 1-128 picograms (pg) per 300 microliters (μL) of sample. […]

In the next data set the test system is rat renal tissue. The settings on record: given during ischemia and 5 minutes before reperfusion; Takahira et al. 2001; cited from earlier work.
The next data set concerns reperfused myocardium. The settings on record: anesthetized rabbits; given 5 minutes prior to reperfusion (after ischemia); Ma et al. 1999; cited from earlier work.
Data set [2] in a line: Long-term infusion (3-4 hours of perfusion). Format: in vivo. The protocol:
In particular embodiments the HNO/NO^− donating compound is administered in the form of a pharmaceutical composition. A pharmaceutical composition comprising an effective amount of the HNO/NO^− donating compound as an active ingredient could be easily prepared by standard procedures well known in the art, with pharmaceutically acceptable non-toxic solvents and/or sterile carriers, if necessary. Such preparations are administered orally or in injectable form, or directly to myocardial tissue. In other embodiments the HNO/NO^− donor is administered without a pharmaceutical carrier. In particular embodiments the HNO/NO^− donor is administered by a short-term infusion, such as for 5 to 20 minutes. In other embodiments the HNO/NO^− donor is administered by a long-term infusion, such as from 3-4 hours.

The subject of data set [3] is conscious dogs experiencing congestive heart failure (CHF). Format: in vivo, mongrel dogs. Particulars: for cardiac load as measured by Edv (preload) and Ea (afterload): FIG. 1.

“Also recorded” adds a separate entry of the source. Ends that are not written are not given here.

Take `CC(C)NCC(O)COc1cccc2ccccc12` (stereo not drawn) [propranolol]: the myocardial performance result in data set [1] was “reduction in myocardial performance”.
Take “calcitonin gene-related peptide8-37 (VTHRLAGLLSRSGGVVKNNFVPTNVGSKAF; ends and bridges not checked; UniProt P06881 90-119, looked up, fragment) [CGRP8-37]”: the “inotropic effect as measured by Ees” value with CGRP receptors (CGRP8-37 alone) is “modest negative inotropic effect”. Moreover, in the data set on CGRP receptors (CGRP8-37 combined with Angeli's salt versus Angeli's salt alone), the “effect on the positive inotropic effect of Angeli's salt (Ees)” value is recorded as “effectively prevented the HNO/NO^−-mediated, positive inotropic effect of Angeli's salt”.
With `[Na+].[Na+].[O-][N+]([O-])=NO` [Angeli's salt, sodium trioxodinitrate], the “neutrophil infiltration into renal tissue” value in the data set on rat renal tissue was “contributed to neutrophil infiltration into the tissue”. In addition, in the data set with reperfused myocardium, the myocardial ischemia/reperfusion injury result was “increased myocardial ischemia/reperfusion injury”. Besides, the “persistence of beneficial effects during long-term infusion” value in data set [2] is reported as “retains its beneficial effects during 3-4 hours of perfusion”. In data set [3], the “cardiac load as measured by Edv (preload) and Ea (afterload)” value is reported as “lowered left ventricular preload; also recorded: reduced the cardiac load”.
For `CC(C)N[N+]([O-])=N[O-].[Na+]` [IPA/NO, isopropylamine (IPA)/NO(Na(CH3)2CHNHN(O)NO)], in data set [3], the “cardiac load as measured by Edv (preload) and Ea (afterload)” value is “reduced the cardiac load”. Besides, the “cardiac contractility compared with Angeli's salt (Ees)” value in data set [3] (IPA/NO doses one-half to one-quarter those of Angeli's salt, nearly equivalent blood pressure decrease) is “superior to those caused by the HNO/NO^− donating compound Angeli's salt; also recorded: exerted a stronger positive inotropic effect; also recorded: greater increase in cardiac contractility than Angeli's salt”.
